Experiments:
[1] = molecular target: T1, human vanilloid receptor-like receptor (VR-L) (Homo sapiens, UniProt Q9Y5S1); test: Whole-cell patch clamp of HEK 293 cells transiently transfected with vr-l cDNA; format: cell-based; set-up: identified as together containing the entire coding region of the VR-L gene; expressed in transfected cells; host or cells: HEK 293 cells, transient transfection; conditions: 1 μM capsaicin by fast perfusion; HEK 293 cells expressing human vr-l cDNA, -60 mV
T1 sequence (Q9Y5S1 1-764): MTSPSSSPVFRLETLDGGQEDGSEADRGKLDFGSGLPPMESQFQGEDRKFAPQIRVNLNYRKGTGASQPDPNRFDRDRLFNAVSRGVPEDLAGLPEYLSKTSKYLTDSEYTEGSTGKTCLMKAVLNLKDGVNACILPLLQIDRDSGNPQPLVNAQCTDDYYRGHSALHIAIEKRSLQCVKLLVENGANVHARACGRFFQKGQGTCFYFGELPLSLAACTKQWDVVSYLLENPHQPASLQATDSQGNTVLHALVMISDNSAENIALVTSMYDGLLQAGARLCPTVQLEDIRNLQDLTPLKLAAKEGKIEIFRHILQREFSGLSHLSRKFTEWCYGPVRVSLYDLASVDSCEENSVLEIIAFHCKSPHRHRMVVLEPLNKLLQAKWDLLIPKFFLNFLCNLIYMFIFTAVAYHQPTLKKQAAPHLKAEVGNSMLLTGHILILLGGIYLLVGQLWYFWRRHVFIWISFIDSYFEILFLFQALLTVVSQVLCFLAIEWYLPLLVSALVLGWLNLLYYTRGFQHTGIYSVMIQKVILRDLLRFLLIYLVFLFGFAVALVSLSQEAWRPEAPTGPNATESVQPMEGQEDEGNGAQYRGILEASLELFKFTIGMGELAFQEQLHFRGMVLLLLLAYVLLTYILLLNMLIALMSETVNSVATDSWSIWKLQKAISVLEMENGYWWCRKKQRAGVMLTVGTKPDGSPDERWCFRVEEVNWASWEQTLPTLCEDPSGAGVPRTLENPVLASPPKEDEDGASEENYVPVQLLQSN
Source text: A glass coverslip containing a monolayer of human embryonic kidney (HEK) 293 cells transiently transfected with the vr-l cDNA was placed in a perspex chamber mounted on the stage of a Nikon Diaphot inverted phase-contrast microscope and continuously perfused with calcium-free artificial cerebrospinal fluid (aCSF, see below). Fire-polished patch pipettes were pulled on program 10 of a WZ, DMZ-Universal puller using conventional 120TF-10 electrode-glass. Pipette tip diameter was generally 1.5–2.5 μM, resistances were approximately 4MΩ. The intracellular pipette solution used is detailed below. High resistance (>10 GΩ) seals were formed by advancing the pipette onto the cell and exerting gentle suction to break through the membrane. The cells were voltage-clamped at −60 mV, using an Axon Axopatch 2 amplifier. Drugs or heated aCSF were applied to the cell under study by fast perfusion using a large internal diameter (50–100 μM) triple-barrel pipette assembly. Drug responses were obtained by rapidly positioning the perfusion pipette to completely envelop the cell in drug solution. This was achieved via a Biologic rapid solution changer which pivots the barrels into the desired position. Fast washout was obtained by re-positioning the washout barrel in line with the cell. [table] [table]

[2] = molecular target: T1, human vanilloid receptor-like receptor (VR-L); test: Xenopus oocyte expression, two-electrode voltage clamp at -70 mV; format: cell-based; conditions: 1 μM capsaicin in the perfusate; Xenopus oocytes expressing human vr-l cDNA
Method: Adult female Xenopus laevis were anaesthetized by immersion in a 0.4% solution of 3-aminobenzoic acid ethylester for 30–45 mins (or until unresponsive). Ovary tissue was removed via a small abdominal incision and Stage V and VI oocytes were isolated with fine forceps. After mild collagenase treatment to remove follicle cells (Type 1A, 0.5 mg mL^−1, for 8 mins), the oocyte nuclei were directly injected with 10–20 nl of injection buffer (88 mM NaCl, 1 mM KCl, 15 mM HEPES, at pH 7, filtered through nitrocellulose) or sterile water containing vr-l cDNA engineered into the expression vector pcDNA3.1Zeo. Following incubation for 48 hrs, oocytes were placed in a 50 μL bath and perfused at 4–6 mL min^−1 with modified Barth's medium (MBS) consisting of 88 mM NaCl, 1 mM KCl, 10 mM HEPES, 0.82 mM MgSO4, 0.33 mM Ca(NO3)2, 0.91 mM CaCl2, 2.4 mM NaHCO3, at pH 7.5. Cells were impaled with two 1–3 MΩ electrodes containing 2 M KCl and voltage clamped between at −70 mV. Drugs were applied in the perfusate and heat was applied by bath applying preheated MBS.

COc1cc(CNC(=O)CCCC/C=C/C(C)C)ccc1O [capsaicin]
response (inward current) to application of drug [1]: No responses | response (inward current) to application of drug [2]: No responses

From patent publication US7179898B1, “Human vanilloid receptor-like receptor” (Merck & Co., Inc., priority 1998, dated 2007)
